Measured values published in EP0552418A1, “N-substituted-3-iodopropiolamide, production and use thereof” (TAKEDA CHEMICAL INDUSTRIES, LTD., priority 1992, dated 1993).

Experiments:
[1] = test system: Aspergillus Niger, Penicillium funiculosum, Rhizopus javanicus, Aureobasidium pullulans, Gliocladium virens; assay: Fungicide activity for wood fungicide, sum over the five fungi and damage value; assay type: cell-based; settings: for damage value (D = S₁ / S₀ × 100): relative to untreated specimens (100.0), lower = higher activity; for wood fungicide activity: statement in words on Table 3
Description: This test was conducted according to Specification No.2 of Japan Wood Preserving Association, enacted in 1979 and titled "Test methods of fungicide activity for wood fungicide".
• ① Aspergillus niger van Tieghem IFO 6341 = ATCC 6275 • ② Penicillium funiculosum Thom (formerly : Penicillium luteum Zukal) IFO 6345 = ATCC 9644 . • ③ Rhizopus javanicus Takeda (formerly : Rhizopus nigricans Ehrenberg S.N. 32) IFO 6354 • ④ Aureobasidium pullulans (de Bary) Arnaud IFO 6353 = IAM (H. Iizuka, F-24) • ⑤ Gliocladium virens Miller, Gidden & Fosteb IFO 6355 = ATCC 9645 (formerly : Trichoderma viride, T.I.)
The average rating (A) was determined for each type of fungi with the following equation: Average rating (A) = (a₁ + a₂ + a₃ + a₄ + a₅ + a₆ ) / 6 [formula] wherein a₁, a₂ ...a₆ : rating for each test specimen.
The damage value was determined with the following equation after determining the sum of average rating by adding each rating of test specimens for each concentration of fungicide solution: S = A₁ + A₂ + A₃ + A₄ + A₅ [formula] wherein A₁, A₂.., A₅: average rating for each type of fungi D = S₁ / S₀ × 100 [formula] wherein S₀ : S for untreated test specimens S₁ : S for specimens treated with certain concentration of fungicide solution
Both lower rating value and lower damage value correspond to higher wood fungicide activity. […]

wood rot fungi = assay: Preserving activity for wood preservatives, overall statement for both wood rot fungi; assay type: cell-based, Tyromyces palustris, Coriolus versicolor; settings: statement in words on Table 2
Description: This test was conducted according to Specification No. 1 of Japan Wood Preserving Association, enacted in 1979, amended in 1989 and titled "Test methods of preserving activity for wood preservatives used in the coating, spraying and dipping treatment".
• ① Tyromyces palustris (Ber. et Curt.) Murr., FFPRI 0507 --"Ouzuratake" • ② Coriolus versicolor(L. ex Fr.) Quélet, FFPRI 1030 --"Kawaratake" These two fungi are classified as wood rot fungi.
The antimicrobial operation was performed with specifying types of fungi for corresponding type of trees. The combinations were as follows: Cedar----Tyromyces palustris ("Ouzuratake") Beech----Coriolus versicolor ("Kawaratake")
The test results were presented by the ratio of average weight loss of test specimens due to antimicrobial operation. The standard deviation and coefficient of variation were also determined. The ratio of weight loss for each test specimen was calculated by the following equation, and its average was also determined: The ratio of weight loss(%) = (W₃ - W₄ ) / W₃ × 100. Lower value of the ratio of weight loss corresponds to higher wood preserving activity. […]

Row | Compound | damage value (D = S₁ / S₀ × 100) ([1]; 0.5% xylene solution) | wood preserving activity (wood rot fungi) | wood fungicide activity [1] | Sum (S = A₁ + A₂ + A₃ + A₄ + A₅) ([1]; 0.5% xylene solution, sum of average ratings of five fungi, untreated 15.0)
1 | CCCCCCCCNC(=O)C#CI [Example 10, N-(n-Octyl)-3-iodopropiolamide] | 54.4 | – | – | –
2 | CCC(C)NC(=O)C#CI (stereo not drawn) [Example 5, N-(sec-Butyl)-3-iodopropiolamide] | 28.9 | excellent wood preserving activity | excellent wood fungicide activity | –
3 | CC(C)CNC(=O)C#CI [Example 6, N-Isobutyl-3-iodopropiolamide] | 20.2 | excellent wood preserving activity | excellent wood fungicide activity | –
4 | CCCCCCNC(=O)C#CI [Example 8, N-(n-Hexyl)-3-iodopropiolamide] | 23.3 | excellent wood preserving activity | excellent wood fungicide activity | –
5 | CCCCNC(=O)C#CI [Example 4, N-(n-Butyl)-3-iodopropiolamide] | – | excellent wood preserving activity | excellent wood fungicide activity | –
6 | CCCCCCCCCCNC(=O)C#CI [Example 2, N-(n-Decyl)-3-iodopropiolamide] | 62.2 | excellent wood preserving activity | – | –
7 | CC(C)(C)NC(=O)C#CI [Example 1, N-(tert-Butyl)-3-iodopropiolamide] | 13.3 | excellent wood preserving activity | excellent wood fungicide activity | –
8 | CCCCCCCCCNC(=O)C#CI [Example 11, N-(n-Nonyl)-3-iodopropiolamide] | 82.2 | – | – | 12.3
9 | CCCCCNC(=O)C#CI [Example 7, N-(n-Pentyl)-3-iodopropiolamide] | 34.4 | excellent wood preserving activity | – | –
